Read-outs that look alike come from different tables or passages of the source.
Experiments:
[1] = tested on: stress granules and P-bodies; settings: literature, cited from earlier work
[2] = tested on: P-bodies (EDC4 foci) in HEK293T cells; experiment: Immunofluorescence phenotypic screen for P-bodies (α-EDC4) in glucose-deprived HEK293T cells; format: cell-based
Description: (§1) SuTEx compound treatments. Prior to treatments, cells were washed twice with warm phosphate-buffered saline (PBS) and exchanged with serum-free DMEM (supplemented with 1% L-glutamine) for at least 30 minutes at 37° C. with 5% CO2. Compounds were then added as 1000×DMSO stocks (10 μL for 10 cm dishes and 3 μL for 6-well dishes), plates were mixed gently, and cells were incubated for two hours. All compounds were thoroughly vortexed and sonicated for five minutes prior to addition to ensure complete solvation. For microscopy experiments, cultures were seeded at 150,000 cells in 3 mL of DMEM in 6-well THERMO SCIENTIFIC™ BIOLITE™ brand microwell plates (Catalog No. 12556004; Thermo Fisher Scientific Inc., Waltham, Massachusetts. United States of America). For collection, media was aspirated, and cells were washed once with cold PBS before scraping from plates. Cells were centrifuged at 500×g at 4° C. for 5 minutes and supernatant was removed. Cell pellets were resuspended in cold PBS (1 mL) and centrifuged at 1,400×g at 4° C. for 3 minutes. Supernatant was again removed, and pellets were then snap-frozen in liquid nitrogen and stored at −80° C. until needed.
(§2) Immunofluorescence. Immunofluorescence (IF) of HEK293T cells was performed as previously described in Ciancone et al., 2022. HeLa cells were seeded at 9.0×10^4 in a 24-well plate with 12-mm glass coverslips. The next day, the cells were treated with 25 μM SuTEx probe for 2 hours in DMEM medium without FBS. The cells were then treated with 75 μM NaAsO2 for 30 minutes and fixed with 3% paraformaldehyde in PBS for 15 minutes at room temperature (RT) and washed with PBS twice. The fixed cells were permeabilized with PBST (0.1% Triton X-100) for 15 minutes at room temperature and blocked with 5% goat serum in PBST for 30 minutes at RT. The cells were incubated with anti-G3BP1 antibody H-10 (Catalog No. sc-365338 at 1:200 dilution; Santa Cruz Biotechnology, Inc., Dallas, Texas, United States of America) for 2 hours at RT and washed with PBST (0.1% Tween-20) for 5 minutes three times. Next, cells were incubated with goat anti-mouse Alexa 594 antibody (Catalog No. 115-585-003 at 1:800 dilution; Jackson ImmunoResearch, West Grove, Pennsylvania, United States of America) for 30 minutes at RT. The cells were washed twice with PBST, stained with Hoechst 33342 (Catalog No. H3570 at […]; Thermo Fischer Scientific) in PBST for 5 minutes, and washed with PBS twice for 5 minutes. The coverslips were mounted in PROLONG™ Gold AntiFade Mountant (Catalog No. P36930, Thermo Fisher Scientific) and imaged using NIS Elements AR software and a Nikon Eclipse Ti microscope equipped with a ×100 objective and CMOS camera. […] A CellProfiler pipeline was developed to quantify the number of stress granules under each condition. Briefly, cells were recognized as blue^+ (nuclei) red^+ (G3BP1) objects, and the red^+ granules that meet the shape and size threshold were identified and counted. Cells on the border of linages were excluded from the analysis for more accurate quantification.
Data Analysis—Microscopy. All slides were blinded for imaging. Leica SP5X images were analyzed using Fiji (ImageJ). Custom macros were written for analysis and can be obtained upon request. To elaborate, images were split into channels based on the different laser wavelengths measured. Image stacks were then combined using ‘Z-Project’ with an average intensity parameter and a threshold was applied to exclude noise based on the negative control (no EDC4 antibody). The ‘Analyze Particles’ function was used with relevant size and circularity constraints (0.85-1.00) to count the number of foci, with total PBs having a diameter of >150 nm, and large PBs>450 nm. The number of foci was normalized to the number of cells (defined by a DAPI stain count) in each linage, and the number of foci per cell was averaged across technical replicates. Every sample had at least two technical replicates and two independent biological replicates. […]

[3] = tested on: stress granules (G3BP1 foci) in HeLa cells; experiment: Immunofluorescence phenotypic screen for stress granules (α-G3BP1) in stressed HeLa cells; format: cell-based; settings: 25 μM, 2 h
Description: as §1, §2
We used immunofluorescence (IF) detection for phenotypic screening of SuTEx compound activity on stress-induced PB and SG levels in cells (FIG. 1B). PBs were induced through glucose deprivation of HEK293T cells and detected by immunofluorescence with anti-enhancer of mRNA-decapping protein 4 (EDC4) as previously described (Kedersha & Anderson, 2007; Ciancone et al., 2022) (~4 vs 2 PBs/cell in −glucose and +glucose conditions, respectively; FIG. 8). EDC4 is an established PB marker for mammalian cells and is important for PB formation (Kedersha & Anderson, 2007; Luo et al., 2018). SGs were induced in HeLa cells by [COMPOUND LEFT OUT] treatments and detected by fluorescent staining with anti-Ras GTPase-activating protein-binding protein 1 (G3BP1) antibody (75 μM [COMPOUND LEFT OUT], 30 min; FIG. 9). G3BP1 foci have been used in previous IF studies to identify SGs in cells (Kedersha & Anderson, 2007). […]

eIF4A = settings: literature; cited from earlier work
[4] = glucose-deprived HEK293T cells, 25 μM, 2 h

Structure (SMILES) | effect on RNP granules (in words) [1] | inhibition of eIF4A (in words) (eIF4A) | further results
O=c1[nH]cc(F)c(=O)[nH]1 [5-fluorouracil] | formation of pro-survival SGs in solid tumors | – | –
O=S(=O)(c1cccnc1)n1cc(-c2ccccc2F)nn1 [AMC-001, 3-((4-(2-Fluorophenyl)-1H-1,2,3-triazol-1-yl)sulfonyl)pyridine] | – | – | fold induction at 25 µM ([2]; Homo sapiens, HEK-293T, glucose-deprived HEK293T cells, pretreatment, 25 μM, 2 h, read-out: increase in PBs/cells): > 2; effect on PBs (in words) [2, 4]: statistically significant increase in PBs per glucose-deprived cell; increase in PBs ([2]; glucose-deprived cells, pretreatment): > 200%; effect on SGs (in words) [3]: negligible effects on the number of SGs per cell
O=S(=O)(c1ccc(F)cc1)n1cnc(-c2cccnc2)n1 [JWB180, 3-(1-((4-Fluorophenyl)sulfonyl)-1H-1,2,4-triazol-3-yl)pyridine] | – | – | effect on PBs (in words) [2, 4]: negligible effects; effect on SGs (in words) [3]: negligible effects
CC(C)C[C@H](NC(=O)[C@H](Cc1ccccc1)NC(=O)c1cnccn1)B(O)O [bortezomib] | formation of pro-survival SGs in solid tumors | – | –
C[C@@H]1C[C@@H]([C@H](O)CC2CC(=O)NC(=O)C2)C(=O)[C@@H](C)C1 [cycloheximide] | – | – | toxicity (in words) [1]: significant toxicity
CC[C@H]1CN2CCc3cc(OC)c(OC)cc3[C@@H]2C[C@@H]1C[C@H]1NCCc2cc(OC)c(OC)cc21 [emetine] | disassemble SGs and stress-induced PBs | – | effect on PB formation (in words) ([2]; emetine 50 nM, 2 h, vs vehicle (water), p<0.001): inhibited PB formation; toxicity (in words) [1]: significant toxicity; effect on RNP granules (in words) ([1]; listed as Emetine): inhibit and even dissociate PBs
C[C@H]1C[C@@]2(O[C@H]3C[C@H]4[C@@H]5CC[C@H]6C[C@H](O)CC[C@]6(C)[C@H]5[C@@H](O)C[C@]4(C)[C@H]3[C@@]2(C)O)OC1(C)C [hippuristanol] | induce SGs in an eIF2a-independent manner | inhibit eIF4A | –
CC(/C=C/C(C)=C/[C@@H]1Cc2nc(cs2)[C@@H](C)C[C@@H](N)CC(=O)O[C@@H](C)C/C(C)=C/C=C\C(=O)O1)=C\CN(C)C [pateamine A] | induce SGs in an eIF2a-independent manner | inhibit eIF4A | –
COc1ccc([C@@]23Oc4cc(OC)cc(OC)c4[C@]2(O)[C@H](O)[C@H](C(=O)N(C)C)[C@H]3c2ccccc2)cc1 [rocaglamide A] | – | inhibit eIF4A | –
COC(=O)[C@H]1[C@@H](O)[C@@]2(O)c3c(OC)cc(O[C@@H]4O[C@@H]([C@H](O)CO)CO[C@H]4OC)cc3O[C@@]2(c2ccc(OC)cc2)[C@@H]1c1ccccc1 [silvestrol] | – | inhibit eIF4A | –
CC[C@]1(O)C[C@@H]2CN(CCc3c([nH]c4ccccc34)[C@@](C(=O)OC)(c3cc4c(cc3OC)N(C)[C@H]3[C@@](O)(C(=O)OC)[C@H](OC(C)=O)[C@]5(CC)C=CCN6CC[C@]43[C@@H]65)C2)C1 [vinblastine] | form PBs | – | –

— patent publication US20260294874A1, “COMPOSITIONS COMPRISING MODULATORS OF RIBONUCLEOPROTEIN GRANULE FORMATION AND DISSOLUTION AND METHODS OF USE THEREOF” (University of Virginia Patent Foundation, priority 2023, published 2026)
